The results in this text go back to US20220402950A1, “SUBSTITUTED BENZIMIDAZOLES AS PAD4 INHIBITORS” (BRISTOL-MYERS SQUIBB COMPANY, priority 2018, published 2022).

SMILES strings stand for the structures. Like-named read-outs stand apart in the source and are kept apart here.

The assay addresses human PAD4 (hPAD4) (Homo sapiens, UniProt Q9UM07). The experiment in a line: RFMS Human PAD4 Functional Assay. The class given is biochemical. Conditions: 5 nM hPAD4, 250 μM BAEE. The method in brief:
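RapidFire ESI-MS quantification, normalised to a modified-citrulline internal standard, after phenyl glyoxal (final 4 mM) derivatisation of the TCA-quenched reaction. The enzyme (10 nM) sat 30 min with compound (up to 50 μM final) before 500 μM BAEE (as added) started a 90 min, 37 °C reaction. Buffer: HEPES pH 7.5, 50 μM calcium, 5 μM TPEN.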

Setting [1] is: hPAD4 RFMS IC50, human PAD4, rapid-fire mass spectrum (RFMS) assay.
Setting [2] is: human PAD4, rapid-fire mass spectrum (RFMS) assay, read-out: hPAD4 RFMS IC50.

human PAD4 (hPAD4), sequence (Q9UM07 whole entry): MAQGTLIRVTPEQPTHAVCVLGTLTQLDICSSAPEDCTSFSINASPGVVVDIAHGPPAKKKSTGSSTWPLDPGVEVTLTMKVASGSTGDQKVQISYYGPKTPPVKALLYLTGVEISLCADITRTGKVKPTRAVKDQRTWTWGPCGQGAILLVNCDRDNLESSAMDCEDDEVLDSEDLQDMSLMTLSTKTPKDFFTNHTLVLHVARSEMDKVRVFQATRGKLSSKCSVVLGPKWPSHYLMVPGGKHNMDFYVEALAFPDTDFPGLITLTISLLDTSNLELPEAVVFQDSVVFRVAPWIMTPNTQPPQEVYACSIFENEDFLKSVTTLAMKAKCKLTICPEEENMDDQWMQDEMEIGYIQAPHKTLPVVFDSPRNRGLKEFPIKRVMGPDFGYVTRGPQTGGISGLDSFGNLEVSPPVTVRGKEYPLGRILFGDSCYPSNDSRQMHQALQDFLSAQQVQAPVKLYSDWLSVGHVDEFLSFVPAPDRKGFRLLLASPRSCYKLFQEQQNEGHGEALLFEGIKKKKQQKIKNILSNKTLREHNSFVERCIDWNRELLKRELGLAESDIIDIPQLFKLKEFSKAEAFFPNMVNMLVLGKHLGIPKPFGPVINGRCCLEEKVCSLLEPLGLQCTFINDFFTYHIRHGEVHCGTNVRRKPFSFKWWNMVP

With `COc1cc(C(=O)N2C[C@H]3CC[C@@H]2[C@@H]3N)cc2nc(-c3cc4cccc(C5CC(C(=O)N(C)C)C5)c4n3CC3CC3)n(C)c12` (single isomer, unassigned) [Example 47], under setting [1], the half-inhibitory concentration (IC50) – broadly, the midpoint of a concentration-inhibition curve – worked out at 13 nM.

Consider `CNC(=O)C1CC(c2cccc3cc(-c4nc5cc(C(=O)N6C[C@H](N)C[C@@H](F)C6)cc(OC)c5n4C)n(CC4CC4)c23)C1` (single isomer, unassigned) [Example 111], for which the IC50 under setting [2] stood at 76 nM.

For `COc1cc(C(=O)N2C[C@H]3CC[C@@H]2[C@@H]3N)cc2nc(-c3cc4cccc(OC)c4n3CC3CC3)n(C)c12` [Example 148, ((1R,4R,7R)-7-amino-2-azabicyclo[2.2.1]heptan-2-yl)(2-(1-(cyclopropylmethyl)-7-methoxy-1H-indol-2-yl)-7-methoxy-1-methyl-1H-benzo[d]imidazol-5-yl)methanone], under setting [1], inhibition was half-maximal at 61 nM (IC50).

Under setting [1], `COc1cc(C(=O)N2C[C@H](N)C[C@@H](F)C2)cc2nc(-c3cc4cccc(-c5ccc6c(c5)CC(=O)N6)c4n3CC3CC3)n(C)c12` [Example 207, 5-(2-(5-((3R,5R)-3-amino-5-fluoropiperidine-1-carbonyl)-7-methoxy-1-methyl-1H-benzo[d]imidazol-2-yl)-1-(cyclopropylmethyl)-1H-indol-7-yl)indolin-2-one] registered a concentration for half-maximal inhibition (IC50) of 70 nM.

Under setting [1], `COc1cc(C(=O)N2C[C@H]3CC[C@@H]2[C@@H]3N)cc2nc(-c3cc4cccc(C5CC(C(=O)N6CCC6)C5)c4n3CC3CC3)n(C)c12` (single isomer, unassigned; isomer 1) [Example 202] yielded a 50% inhibitory concentration (IC50) of 24 nM.

Regarding `COc1cc(C(=O)N2C[C@H]3CC[C@@H]2[C@@H]3N)cc2nc(-c3cc4cccc(C5CCCN(C(N)=O)C5)c4n3CC3CC3)n(C)c12` (stereo partly drawn) [Example 39, 3-(2-{5-[(1R,4R,7R)-7-amino-2-azabicyclo[2.2.1]heptane-2-carbonyl]-7-methoxy-1-methyl-1H-1,3-benzodiazol-2-yl}-1-(cyclopropylmethyl)-1H-indol-7-yl)piperidine-1-carboxamide], the IC50 under setting [1] was 51 nM.

In turn, `COc1cc(C(=O)N2C[C@H]3CC[C@@H]2[C@@H]3N)cc2nc(-c3cc4cccc(C5CC(C(=O)O)C5)c4n3CC3CC3)n(C)c12` (single isomer, unassigned) [Example 56] yielded a half-maximal inhibitory concentration (IC50) under setting [1] of 170 nM.

As for `COc1cc(C(=O)N2C[C@H]3CC[C@@H]2[C@@H]3N)cc2nc(-c3cc4cccc(Nc5cn(C)nc5C)c4n3CC3CC3C)n(C)c12` (stereo partly drawn) [Example 177, ((1R,4R,7R)-7-amino-2-azabicyclo[2.2.1]heptan-2-yl)(2-(7-((1,3-dimethyl-1H-pyrazol-4-yl)amino)-1-((2-methylcyclopropyl)meth-yl)-1H-indol-2-yl)-7-methoxy-1-methyl-1H-benzo[d]imidazol-5-yl)methanone], under setting [1], half-maximal inhibition (IC50) was put at 40 nM.

On to `COc1cc(C(=O)N2C[C@H]3CC[C@@H]2[C@@H]3N)cc2nc(-c3cc4cccc(C5CC(C(=O)N(C)C)C5)c4n3CC3CC3)n(C)c12` (single isomer, unassigned) [Example 48], for which 50 nM corresponded to half-maximal inhibition under setting [1] (IC50).

Consider `COc1cc(C(=O)N2C[C@H]3CC[C@@H]2[C@@H]3N)cc2nc(-c3cc4cccc(-c5cn[nH]c5)c4n3CC3CC3(Cl)Cl)n(C)c12` (stereo partly drawn) [Example 151, ((1R,4R,7R)-7-amino-2-azabicyclo[2.2.1]heptan-2-yl)(2-(1-((2,2-dichlorocyclopropyl)meth-yl)-7-(1H-pyrazol-4-yl)-1H-indol-2-yl)-7-methoxy-1-methyl-1H-benzo[d]imidazol-5-yl)methanone], for which the half-maximal inhibitory concentration (IC50) under setting [1] amounted to 104 nM.

In the case of `COc1cc(C(=O)N2C[C@H]3CC[C@@H]2[C@@H]3N)cc2nc(-c3cc4cccc(CC5CNC5)c4n3CC3CC3)n(C)c12` [Example 26, (1R,4R,7R)-2-(2-{7-[(azetidin-3-yl)methyl]-1-(cyclopropylmethyl)-1H-indol-2-yl}-7-methoxy-1-methyl-1H-1,3-benzodiazole-5-carbonyl)-2-azabicyclo[2.2.1]heptan-7-amine], inhibition under setting [1] was half-maximal at 41 nM (IC50).

On to `COc1cc(C(=O)N2C[C@H]3CC[C@@H]2[C@@H]3N)cc2nc(-c3cc4cccc(C5CCCN(C(C)=O)C5)c4n3CC3CC3)n(C)c12` (stereo partly drawn) [Example 38, 1-[3-(2-{5-[(1R,4R,7R)-7-amino-2-azabicyclo[2.2.1]heptane-2-carbonyl]-7-methoxy-1-methyl-1H-1,3-benzodiazol-2-yl}-1-(cyclopropylmethyl)-1H-indol-7-yl)piperidin-1-yl]ethan-1-one], for which half-maximal inhibition under setting [1] (IC50) was put at 73 nM.

As to `COc1cc(C(=O)N2C[C@H]3CC[C@@H]2[C@@H]3N)cc2nc(-c3cc4cccc(C5CN(C(=O)Cc6ccccc6)C5)c4n3CC3CC3)n(C)c12` [Example 72, 1-[3-(2-{5-[(1R,4R,7R)-7-amino-2-azabicyclo[2.2.1]heptane-2-carbonyl]-7-methoxy-1-methyl-1H-1,3-benzodiazol-2-yl}-1-(cyclopropylmethyl)-1H-indol-7-yl)azetidin-1-yl]-2-phenylethan-1-one], the IC50 under setting [1] was determined as 10 nM.

For `COc1cc(C(=O)N2C[C@H]3CC[C@@H]2[C@@H]3N)cc2nc(-c3cc4cccc(C5CCN(C(=O)C6CC67CC7)CC5)c4n3CC3CC3)n(C)c12` (stereo partly drawn) [Example 224, (4-(2-(5-((1R,4R,7R)-7-amino-2-azabicyclo[2.2.1]heptane-2-carbonyl)-7-methoxy-1-methyl-1H-benzo[d]imidazol-2-yl)-1-(cyclopropylmethyl)-1H-indol-7-yl)piperidin-1-yl)(spiro[2.2]pentan-1-yl)methanone], the half-maximal inhibitory concentration (IC50) under setting [1] amounted to 78 nM.

In the case of `COc1cc(C(=O)N2CC3CC[C@@H]2[C@@H]3N)cc2nc(-c3cc4cccc(-c5ccc6c(c5)C(C)(C)OC(=O)N6)c4n3CC3CC3)n(C)c12` (stereo in doubt) [Example 142, 6-(2-(5-((1R,4S)-7-amino-2-azabicyclo[2.2.1]heptane-2-carbonyl)-7-methoxy-1-methyl-1H-benzo[d]imidazol-2-yl)-1-(cyclopropylmethyl)-1H-indol-7-yl)-4,4-dimethyl-1,4-dihydro-2H-benzo[d][1,3]oxazin-2-one], under setting [1], it took 180 nM to reach half-maximal inhibition (IC50).

With `COc1cc(C(=O)N2C[C@H](N)C[C@@H](F)C2)cc2nc(-c3cc4cccc(C5CN(C(C)=O)C5)c4n3CC3CC3)n(C)c12` [Example 41, 1-[3-(2-{5-[(3R,5R)-3-amino-5-fluoropiperidine-1-carbonyl]-7-methoxy-1-methyl-1H-1,3-benzodiazol-2-yl}-1-(cyclopropylmethyl)-1H-indol-7-yl)azetidin-1-yl]ethan-1-one], the 50% inhibitory concentration (IC50) under setting [2] stood at 53 nM.

In turn, `COc1cc(C(=O)N2C[C@H]3CC[C@@H]2[C@@H]3N)cc2nc(-c3cc4cccc(-c5ccc(C(=O)N(C)C)cc5)c4n3CC3CC3)n(C)c12` [Example 125, 4-(2-(5-((1R,4R,7R)-7-amino-2-azabicyclo[2.2.1]heptane-2-carbonyl)-7-methoxy-1-methyl-1H-benzo[d]imidazol-2-yl)-1-(cyclopropylmethyl)-1H-indol-7-yl)-N,N-dimethylbenzamide] came in with a 50% inhibitory concentration (IC50) under setting [1] of 125 nM.

Consider `COc1cc(C(=O)N2C[C@H]3CC[C@@H]2[C@@H]3N)cc2nc(-c3cc4cccc(CCC(N)=O)c4n3CC3CC3)n(C)c12` [Example 20, 3-(2-{5-[(1R,4R,7R)-7-amino-2-azabicyclo[2.2.1]heptane-2-carbonyl]-7-methoxy-1-methyl-1H-1,3-benzodiazol-2-yl}-1-(cyclopropylmethyl)-1H-indol-7-yl)propanamide], for which, under setting [1], the IC50 is 47 nM.

Turning to `COc1cc(C(=O)N2C[C@H]3CC[C@@H]2[C@@H]3N)cc2nc(-c3cc4cccc(-c5cccc6c5CNC6=O)c4n3CC3CC3)n(C)c12` [Example 96, 4-(2-{5-[(1R,4R,7R)-7-amino-2-azabicyclo[2.2.1]heptane-2-carbonyl]-7-methoxy-1-methyl-1H-1,3-benzodiazol-2-yl}-1-(cyclopropylmethyl)-1H-indol-7-yl)-2,3-dihydro-1H-isoindol-1-one], the IC50 under setting [1] was found to be 144 nM.

As for `COc1cc(C(=O)N2CC3CCC2C3N)cc2nc(-c3cc4cccc(Nc5ccccc5P(C)(C)=O)c4n3CC3CC3)n(C)c12` (stereo not drawn) [Example 166, (7-amino-2-azabicyclo[2.2.1]heptan-2-yl)(2-(1-(cyclopropylmethyl)-7-((2-(dimethylphosphoryl)phe-nyl)amino)-1H-indol-2-yl)-7-methoxy-1-methyl-1H-benzo[d]imidazol-5-yl)methanone], under setting [1], the half-inhibitory concentration (IC50) worked out at 171 nM.

As for `COc1cc(C(=O)N2CC3CCC2[C@@H]3N)cc2nc(-c3cc4cccc(-c5cn(C)nc5-c5ccccc5F)c4n3CC3CC3)n(C)c12` (stereo partly drawn) [Example 135, ((7R)-7-amino-2-azabicyclo[2.2.1]heptan-2-yl)(2-(1-(cyclopropylmethyl)-7-(3-(2-fluorophenyl)-1-methyl-1H-pyrazol-4-yl)-1H-indol-2-yl)-7-methoxy-1-methyl-1H-benzo[d]imidazol-5-yl)methanone], under setting [1], inhibition was half-maximal at 96 nM (IC50).

With `COc1cc(C(=O)N2C[C@H]3CC[C@@H]2[C@@H]3N)cc2nc(-c3cc4cccc(C5CC6(C5)CN(C(C)=O)C6)c4n3CC3CC3)n(C)c12` [Example 62, 1-[6-(2-{5-[(1R,4R,7R)-7-amino-2-azabicyclo[2.2.1]heptane-2-carbonyl]-7-methoxy-1-methyl-1H-1,3-benzodiazol-2-yl}-1-(cyclopropylmethyl)-1H-indol-7-yl)-2-azaspiro[3.3]heptan-2-yl]ethan-1-one], the IC50 under setting [2] is 110 nM.

As for `COc1cc(C(=O)N2C[C@H]3CC[C@@H]2[C@@H]3N)cc2nc(-c3cc4cccc(C5CCN(C(N)=O)CC5)c4n3CC3CC3)n(C)c12` [Example 251, 4-(2-(5-((1R,4R,7R)-7-amino-2-azabicyclo[2.2.1]heptane-2-carbonyl)-7-methoxy-1-methyl-1H-benzo[d]imidazol-2-yl)-1-(cyclopropylmethyl)-1H-indol-7-yl)piperidine-1-carboxamide], it took 20 nM to reach half-maximal inhibition under setting [1] (IC50).

For `COc1cc(C(=O)N2C[C@H]3CC[C@@H]2[C@@H]3N)cc2nc(-c3cc4cccc(C5CC(C(N)=O)C5)c4n3CC3CC3)n(C)c12` (single isomer, unassigned) [Example 45], inhibition under setting [1] was half-maximal at 25 nM (IC50).
